Measured values from patent publication US10463664B2, “Inhibitors of HSV nucleotidyl transferases and uses therefor” (Saint Louis University, priority 2013, dated 2019).

How the values were obtained:
[1] = Neutral red cytotoxicity assay in uninfected HFFs (14 day, with CPE assay); assay type: cell-based, human; conditions: human, uninfected human foreskin fibroblasts (HFFs)
Description: Anti-HCMV CPE inhibition and cytotoxicity assays. HFFs were infected with HCMV strain AD169 in the presence of serial dilutions of the compounds from 0.0192 to 60 μM. Fourteen days later the monolayers were stained with crystal violet, and retained cell density was quantified using a multiplate autoreader (BioTek). Cytotoxicity was measured the same way, except that the cells were uninfected and neutral red internalization by viable cells was measured.
Antiviral efficacy against HCMV. The ability of select HSV inhibitors to inhibit replication of another major human herpesvirus pathogen, human cytomegalovirus (HCMV) (65) was tested. This was based on the inhibitors strong suppression of HSV-1 and HSV-2 and the prediction that other members of the herpesvirus family would be sensitive to NTS inhibitors due to their shared DNA replication mechanism. Compounds #41, 46, 49, 55, 56, and 59 and the FDA-approved anti-HCMV drug ganciclovir were evaluated with crystal violet CPE and neutral red toxicity assays in HFFs. HFFs were infected with HCMV in the presence of serial dilutions of the compounds that were most inhibitory for HSVs. After 14 days the monolayers were stained and cell density was determined by OD reading. Compound cytotoxicity for uninfected cells was determined in the same manner except that neutral red uptake by viable cells was measured. […] The TI values for the four NTS inhibitors of HCMV ranged from 4 for compound #41 to 38 for #56. Therefore, NTS inhibitors can suppress HCMV replication in addition to inhibiting the HSVs.

[2] = Neutral red cytotoxicity assay in HFFs (10 day, with plaque reduction assay); assay type: cell-based, human; conditions: human, uninfected primary human foreskin fibroblasts (HFFs), 10 day assay
Description: HCMV plaque reduction EC50 and toxicity assays. Low passage primary HFFs were infected with HCMV strain AD169 in the presence of serial dilutions of the compounds from 0.032 to 100 μM. Ten days later the monolayers were stained with 1% neutral red solution in PBS. After rinsing, plaques were counted using a stereomicroscope and the EC50 was interpolated from the data. Cytotoxicity was measured using a plate-based assay in which compounds were added to HFFs at 0.032 to 100 μM. At the end of the incubation period, plates were stained for 1 h with a neutral red solution in PBS. The stain was then removed, the plates rinsed in PBS and dried, and dye internalized by viable cells was determined at OD550. CC50 values were interpolated from the data.
Compounds #41, 46, 49, 55, 56, and 59 and the FDA-approved, anti-HCMV drug ganciclovir were subsequently evaluated with plaque reduction and toxicity assays in HFFs. HFFs were infected with HCMV in the presence of serial dilutions of the compounds. After 10 days the cultures were stained with neutral red and plaques were counted. Compound cytotoxicity for uninfected cells was determined in the same manner except that neutral red uptake by viable cells was measured by optical density. […] The TI values for the five NTS inhibitors of HCMV ranged from 5 for compound #46 to 17 for #55 and 59. Therefore, NTS inhibitors can suppress HCMV replication in addition to inhibiting the HSVs.

[3] = tested on: HSV-1; experiment: Pre-incubation of viral inoculum with compound (virus infectivity); assay type: cell-based, herpes simplex virus 1
Description: Tests were carried out to determine if the early event inhibited by compound #46 was a pre- or post-entry event. A high titer HSV-1 stock was pre-incubated with compound #46 at 50 μM or was incubated with an equivalent amount of DMSO-containing medium for 1 hour at 37° C. Then the viral stocks with compound or DMSO were diluted such that Vero cells were infected at a moi of 0.1 as usual. […] A standard inhibition assay using compound #46 at 50 μM was conducted in parallel as a positive control, and viral titers were determined by plaque assay at 24 hours post-infection. The standard conditions of infection at 50 μM caused a 5.5 log10 suppression of HSV-1 replication relative to the DMSO pre-treatment sample.

SMILES	CC50 at 14 days [1] [µM]	CC50 at 10 days [2] [µM]	Suppression of HSV-1 replication, standard conditions of infection ([3]; 50 μM throughout, relative to DMSO pre-treatment sample) [log10]	Effect of pre-incubation on virions / virus entry (in words) ([3]; pre-incubation 50 μM, 1 hour, 37° C.)
Cc1cc(C2CCCCC2)n(O)c(=O)c1 [Compound 41, Ciclopirox, reference compound]	8.9	2.9	–	–
CC(C)c1ccc(O)c(=O)c(O)c1 [Compound 46, Beta-thujaplicinol]	–	–	5.5	not directly toxic to virions
